Common to all, as to test: NCI anticancer screen, dose series, 48 h
Assay [1] deals with SK-OV-3 ovarian.
The test system of assay [2] is UACC-62 melanoma.
Assay [3] concerns T-47D breast.
For assay [4], the system named is COLO 205 colon.
Assay [5] concerns SF-268 CNS.
Assay [6] relates to HS 578T breast.
In assay [7] the test system is OVCAR-5 ovarian.
Assay [8] concerns MCF7 breast.
The subject of assay [9] is CCRF-CEM leukemia.
Assay [10] relates to MDA-MB-435.
The subject of assay [11] is HCT-116 colon.
Assay [12] deals with OVCAR-3 ovarian.
In assay [13] the test system is UACC-257 melanoma.
The subject of assay [14] is KM12 colon.
In assay [15] the test system is HCC-2998 colon.
Assay [16] has as its system PC-3 prostate.
Assay [17] has as its system SNB-19 CNS.
The subject of assay [18] is MOLT-4 leukemia.
Assay [19] deals with SK-MEL-5 melanoma.
For assay [20], the system named is HT29 colon.

Data on 4 compounds can be found in PubChem BioAssay (NCI).

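Cells were grown in 96-well plates and exposed to each compound for 48 hours at five concentrations; endpoints were interpolated linearly between bracketing concentrations, or set to the highest concentration if not reached. TGI is the concentration that stops growth completely.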 Where only a bound is given, the exact number is not on record here.

With `CCc1cc(=O)n(/C(C)=C/c2ccccc2)n1C`, the TGI in assay [1], in [2], in assay [3], in assay [4], in assay [5] and in assay [6] was more than 100 µM in each case. In addition, the TGI in [7], in assay [8], in assay [9], in assay [10], in assay [11] and in assay [12] was more than 100 µM in each case. Moreover, the TGI in [13], in assay [14], in assay [15], in [16], in assay [17] and in [18] was more than 100 µM throughout. Moreover, the TGI in assay [19] and in assay [20] was more than 100 µM throughout.

Take `CCOC(=O)C1=C(C)NC(=O)N([N+](=O)[O-])C1c1ccccc1C(F)(F)F` (stereo not given): the TGI in [1], in assay [2], in assay [3], in assay [4], in assay [5] and in assay [6] was more than 100 µM throughout. Moreover, the TGI in assay [7], in [8], in [9], in assay [10], in [11] and in assay [12] was more than 100 µM in each case. The TGI in [13], in assay [16], in assay [17], in assay [18], in assay [19] and in assay [20] was more than 100 µM in each case.

Regarding `COc1ccc(/C(C)=N/NC(=S)N(C)C)c(O)c1`, the TGI in assay [1] was more than 100 µM; in assay [2], 20.1 µM; in [3] it was more than 100 µM; in assay [4], 12.4 µM; in assay [5], more than 100 µM; in assay [6] it was more than 100 µM. Further, the TGI in [7] was more than 100 µM; in [9], 87.9 µM; in assay [10] it was more than 100 µM; in assay [11] it was more than 100 µM; in [12], more than 100 µM; in [13], 77.7 µM. The TGI in assay [14], in [15], in [16], in assay [17], in assay [18] and in assay [19] was more than 100 µM each time. Besides, in [20], the TGI is more than 100 µM.

For `Cc1cc(C)nc(NS(=O)(=O)c2ccc(Nc3c4ccccc4nc4c(C(=O)NCCO)cccc34)cc2)n1`, the TGI in [1] was more than 100 µM; in assay [2] it was more than 100 µM; in [3] it was more than 100 µM; in [4] it was 31.3 µM; in assay [5] it was 58.6 µM; in assay [6], more than 100 µM. Further, the TGI was 91.7 µM in assay [7]; 42.8 µM in assay [8]; 50.9 µM in [9]; 40.7 µM in assay [10]; more than 100 µM in assay [12]; 22.9 µM in assay [14]. In addition, the TGI was 27.8 µM in assay [15]; more than 100 µM in assay [16]; more than 100 µM in [17]; more than 100 µM in [18]; 36.6 µM in assay [19]; 38.3 µM in assay [20].
